Measurements: PMC8815882, “Screening the pandemic response box identified benzimidazole carbamates, Olorofim and ravuconazole as promising drug candidates for the treatment of eumycetoma” (PLoS Neglected Tropical Diseases, 2022)
≈ marks a conversion by molar mass, not a printed value. Like-named read-outs stand apart in the source and are kept apart here. Each block holds one molecule with its values, some of them ahead of it.

Assays:
[1] = test system: M. mycetomatis genome strain MM55; assay: CLSI M38-A2 based in vitro susceptibility screening (XTT or resazurin), growth at fixed concentration; format: cell-based, Madurella mycetomatis; settings: Madurella mycetomatis
M. mycetomatis MM55 = assay: IC50 determination, 2-fold dilution series; format: cell-based, Madurella mycetomatis; settings: for IC50 / IC90: Madurella mycetomatis
M. mycetomatis = assay: Drug static or cidal; format: cell-based, Madurella mycetomatis
Description: Supplement pntd.0010159.s001.xlsx, sheet "Pandemic Box Master sheet" | column: Drug static or cidal

[2] = test system: Me. romeroi strain CBS128765; assay: CLSI M38-A2 based in vitro susceptibility screening at 25 μM; format: cell-based, Medicopsis romeroi; settings: selected if >75% (resazurin) or >80% (XTT) fungal growth inhibited
[3] = test system: ten different M. mycetomatis isolates; assay: MIC / MIC50 determination (XTT) in ten M. mycetomatis isolates; format: cell-based, Madurella mycetomatis; settings: Madurella mycetomatis
[4] = test system: M. mycetomatis isolate MM55; assay: M. mycetomatis grain infection model in G. mellonella larvae, survival; format: in vivo, Galleria mellonella; settings: for Effect on larvae survival Day 4 (words): day four
[5] = 25 uM, mean of three replicates, read-out: Percentage survival at 25um, 25 uM mean
[6] = 25 uM, replicate A, read-out: Percentage survival at 25um, 25 um A
[7] = 25 uM, replicate B, read-out: Percentage survival at 25um, 25 uM B
[8] = 25 uM, replicate C, read-out: Percentage survival at 25um, 25 uM C
[9] = first replicate column, read-out: Percentage survival at 100um, 100 uM A
[10] = mean of three replicates, read-out: Percentage survival at 100um, 100 uM mean
[11] = second replicate column, read-out: Percentage survival at 100um, 100 uM A
[12] = third replicate column, read-out: Percentage survival at 100um, 100 uM A
[13] = MM55, mean of replicates, read-out: IC50 mean
[14] = MM55, mean of replicates, read-out: IC90 mean
[15] = MM55, replicate 1, read-out: IC50 1 um
[16] = MM55, replicate 1, read-out: IC90 1 um
[17] = MM55, replicate 2, read-out: IC50 2 um
[18] = MM55, replicate 2, read-out: IC90 2 um
[19] = MM55, replicate 3, read-out: IC50 3 um
[20] = MM55, replicate 3, read-out: IC90 3 um
[21] = G. mellonella larvae infected with M. mycetomatis

- IC50 (M. mycetomatis MM55; [13]): > 25 µM
- IC90 (M. mycetomatis MM55; [14]): > 25 µM
- IC50 (M. mycetomatis MM55; [15]): > 25 µM
- IC90 (M. mycetomatis MM55; [16]): > 25 µM
- IC50 (M. mycetomatis MM55; [17]): > 25 µM
- IC90 (M. mycetomatis MM55; [18]): > 25 µM
- IC50 (M. mycetomatis MM55; [19]): > 25 µM
- IC90 (M. mycetomatis MM55; [20]): > 25 µM
Structure (SMILES): Clc1ccc(Cn2c(CN3CCCC3)nc3ccccc32)cc1 [MMV002015]
- activity at 25 µM [1, 5]: 6.67%
- activity at 25 µM [1, 6]: 9.47%
- activity at 25 µM [1, 7]: -1.23%
- activity at 25 µM [1, 8]: 11.8%
- activity at 100 µM [1, 9]: 3.95%
- activity at 100 µM [1, 10]: 4.96%
- activity at 100 µM [1, 11]: 6.49%
- activity at 100 µM [1, 12]: 4.45%
- Drug static or cidal (M. mycetomatis): Cidal

- IC50 (M. mycetomatis MM55; [13]): > 25 µM
- IC90 (M. mycetomatis MM55; [14]): > 25 µM
- IC50 (M. mycetomatis MM55; MM55, replicate 1, read-out: IC50 1): 18.5 µM
- IC90 (M. mycetomatis MM55; MM55, replicate 1, read-out: IC90 1): > 25 µM
- IC50 (M. mycetomatis MM55; MM55, replicate 2, read-out: IC50 2): > 25 µM
- IC90 (M. mycetomatis MM55; MM55, replicate 2, read-out: IC90 2): > 25 µM
- IC50 (M. mycetomatis MM55; MM55, replicate 3, read-out: IC50 3): > 25 µM
- IC90 (M. mycetomatis MM55; MM55, replicate 3, read-out: IC90 3): > 25 µM
Structure (SMILES): Cc1ccc(S(=O)(=O)Nc2cccc3cccnc23)cc1 [MMV233495]
- activity at 25 µM ([1]; 25 uM, mean of replicates, read-out: Percentage survival at 25um, 25 uM mean): 17.1%
- activity at 25 µM [1, 6]: 5.12%
- activity at 25 µM [1, 7]: -0.547%
- activity at 25 µM [1, 8]: 46.8%
- activity at 100 µM ([1]; mean of replicates, read-out: Percentage survival at 100um, 100 uM mean): 31.3%
- activity at 100 µM ([1]; replicate 1, read-out: Percentage survival at 100um, 100 uM A): -0.389%
- activity at 100 µM ([1]; replicate 2, read-out: Percentage survival at 100um, 100 uM A): 38.9%
- activity at 100 µM ([1]; replicate 3, read-out: Percentage survival at 100um, 100 uM A): 55.5%
- Drug static or cidal (M. mycetomatis): Static

Structure (SMILES): COC(=O)Nc1nc2ccccc2[nH]1 [MMV344625, Carbendazim]
- activity at 25 µM ([1]; 25 uM, replicate A, M. mycetomatis MM55, read-out: Percentage survival at 25um, 25 um A): 1.64%
- activity at 100 µM ([1]; mean of three, M. mycetomatis MM55, read-out: Percentage survival at 100um, 100 uM mean): 8.48%
- activity at 100 µM ([1]; replicate 1, M. mycetomatis MM55, read-out: Percentage survival at 100um, 100 uM A (first replicate column)): 0.376%
- activity at 100 µM ([1]; replicate 2, M. mycetomatis MM55, read-out: Percentage survival at 100um, 100 uM A (second replicate column)): 3.66%
- activity at 100 µM ([1]; replicate 3, M. mycetomatis MM55, read-out: Percentage survival at 100um, 100 uM A (third replicate column)): 21.4%
- activity at 25 µM ([1]; read-out: Percentage survival at 25um, 25 uM B): 6.23%
- activity at 25 µM ([1]; read-out: Percentage survival at 25um, 25 uM C): 2.7%
- activity at 25 µM ([1]; read-out: Percentage survival at 25um, 25 uM mean): 3.52%
- Inhibits growth of Medicopsis romeroi at 25 μM [2]: inhibit the growth
- Drug static or cidal (M. mycetomatis MM55; M. mycetomatis): Static
- IC50 (M. mycetomatis MM55; MM55, Table 2, M. mycetomatis MM55, read-out: IC50): 1.32 µM
- IC50 (M. mycetomatis MM55; [13]): 1.32 µM
- IC50 (M. mycetomatis MM55; [15]): 2.28 µM
- IC90 (M. mycetomatis MM55; [16]): 4.72 µM
- IC50 (M. mycetomatis MM55; [17]): 0.7 µM
- IC90 (M. mycetomatis MM55; [18]): 1.5 µM
- IC50 (M. mycetomatis MM55; [19]): 0.97 µM
- IC90 (M. mycetomatis MM55; [20]): > 25 µM
- MIC50 ([3]; Table 3 and Fig 5, benzimidazole carbamates, M. mycetomatis, read-out: MIC50): 0.5 µM (≈ 0.0956 µg/mL)
- MIC50 ([3]; median MIC over ten M. mycetomatis isolates, no asterisk, read-out: MIC50): 0.5 µM (≈ 0.0956 µg/mL)
- MIC50 ([3]; over the tested M. mycetomatis isolates, read-out: MIC50 mean): 0.5 µM (≈ 0.0956 µg/mL)
- MIC ([3]; isolate CBS247.48, read-out: MIC CBS247.48): 0.5 µM (≈ 0.0956 µg/mL)
- MIC ([3]; isolate MM14, read-out: MIC MM14): < 0.0312 µM
- MIC ([3]; isolate MM45, read-out: MIC MM45): 1 µM (≈ 0.191 µg/mL)
- MIC ([3]; isolate MM55, read-out: MIC MM55): 0.5 µM (≈ 0.0956 µg/mL)
- MIC ([3]; isolate P1, read-out: MIC P1): 0.5 µM (≈ 0.0956 µg/mL)
- MIC ([3]; isolate ParijsAl1, read-out: MIC ParijsAl1): 1 µM (≈ 0.191 µg/mL)
- MIC ([3]; isolate Peru72012, read-out: MIC Peru72012): 1 µM (≈ 0.191 µg/mL)
- MIC ([3]; isolate So1, read-out: MIC So1): 0.5 µM (≈ 0.0956 µg/mL)
- MIC ([3]; isolate i1, read-out: MIC i1): 0.5 µM (≈ 0.0956 µg/mL)
- MIC ([3]; isolate i11, read-out: MIC i11): 2 µM (≈ 0.382 µg/mL)
- Effect on larvae survival Day 4 (words) ([4]; 20 μM per larvae, vs infected control): Increase survival
- Effect on larvae survival Day 4 (words) ([4]; 20 μM per larvae, vs infected control, listed as carbendazim): significantly increase larvae survival
- Effect on larvae survival Day 10 (words) ([4]; 20 μM per larvae, vs infected control, day ten): No
- In vivo efficacy, Enhanced survival compared to control? [4, 21]: no
- In vivo efficacy, Larvae survival % [4, 21]: 6.7%

- IC50 (M. mycetomatis MM55; [13]): > 25 µM
- IC90 (M. mycetomatis MM55; [14]): > 25 µM
- IC50 (M. mycetomatis MM55; [15]): > 25 µM
- IC90 (M. mycetomatis MM55; [16]): > 25 µM
- IC50 (M. mycetomatis MM55; [17]): > 25 µM
- IC90 (M. mycetomatis MM55; [18]): > 25 µM
- IC50 (M. mycetomatis MM55; [19]): > 25 µM
- IC90 (M. mycetomatis MM55; [20]): > 25 µM
Structure (SMILES): Oc1cccc(C(Nc2nccs2)c2ccc3cccnc3c2O)c1 (stereo not drawn) [MMV642550]
- activity at 25 µM [1, 5]: 1.21%
- activity at 25 µM [1, 6]: -5.33%
- activity at 25 µM [1, 7]: 6.92%
- activity at 25 µM [1, 8]: 2.03%
- activity at 100 µM [1, 9]: 4.63%
- activity at 100 µM [1, 10]: 8.03%
- activity at 100 µM [1, 11]: 8.66%
- activity at 100 µM [1, 12]: 10.8%
- Drug static or cidal (M. mycetomatis): Cidal
